Data published in patent US20210327553A1, “PREDICTION OF ADVERSE DRUG REACTION BASED ON MACHINE-LEARNED MODELS USING PROTEIN FUNCTION SCORES AND CLINICAL FACTORS” (Cipherome, Inc., priority 2020, published 2021).

How the values were obtained:
[1] = prolonged use in patients with liver or kidney problems or immunosuppressed; cited from earlier work
COVID-19 = conditions: limited in-vitro and anecdotal data; cited from earlier work
[2] = Retrospective UK Biobank analysis of warfarin ADR records within first 90 days of administration; format: in vivo; conditions: n=612, ADR record (ICD9/10) within first 90 days of warfarin administration
Procedure: A retrospective analysis was conducted using genomic and phenotypic data from the UK Biobank (FIG. 2). […] Most common warfarin ADRs listed in the health registry data included non-traumatic, hemorrhage, gastrointestinal bleeding, and “ADRs due to anticoagulant use”.

SMILES	cardiotoxicity [1]	in-vitro activity against COVID-19 (COVID-19)	ADR prevalence [2] [%]
CCN(CCO)CCCC(C)Nc1ccnc2cc(Cl)ccc12 (centres unmarked) [hydroxychloroquine]	cadiotoxicity (prolonged QT syndrome of irregular heartbeats)	have in-vitro activity against COVID-19	–
CCN(CC)CCCC(C)Nc1ccnc2cc(Cl)ccc12 (centres unmarked) [chloroquine]	cadiotoxicity (prolonged QT syndrome of irregular heartbeats)	have in-vitro activity against COVID-19	–
CC(=O)CC(c1ccccc1)c1c(O)c2ccccc2oc1=O (centres unmarked) [warfarin]	–	–	4.41
